Read-outs that look alike come from different tables or passages of the source.
Columns and labels:
carrageenin oedema = carrageenin oedema test in the rat, oral administration; assay type: in vivo; conditions: rat, oral; for % change of increase of original volume, 1 h / % change of increase of original volume, 2 h / % change of increase of original volume, 3 h / % change of increase of original volume, 4 h / % change of increase of original volume, 5 h: vs controls
Method: (§1) The anti-inflammatory and analgesic activity of compound Ib was tested after oral administration in the carrageenin oedema test in the rat (C. A. Winter et al. Proc. Soc. Exp. Biol. Med., 111, 544, 1962), in the phenylquinone writhing test (I. C. Hendershot and J. J. Forsaith, Pharmacol. Exp. Ther., 125, 237, 1959) and in the hot plate test on the mouse (N. B. Eddy and D. J. Leimbach, J. Pharmacol. Exp. Ther., 107, 385, 1953). The activity of the compound was compared with equimolecular doses of sodium meclofenamate. A comparison was also made between the acute toxicity of the two substances by measuring the oral LD 50 on the rat.
The substances under test, dissolved in distilled water, were administered by a stomach probe 1 hour before subplantar injection of carrageenin (1% in sterile 0.9% NaCl aqueous solution). […]

[1] = system: writhing induced by phenylquinone; test: phenylquinone writhing test, oral administration; assay type: in vivo, mouse; conditions: oral
Method: as §1
The substances under test were administered by a stomach probe 1 hour before intraperitoneal injection of phenylquinone (2 mg/kg). The abdominal contractions of the treated animals and the controls were counted during every 10 minutes for half an hour.

[2] = system: reaction time to heat (hot plate); assay type: in vivo, mouse; conditions: oral; for Percentages of mice protected at 30 minutes / Percentages of mice protected at 60 minutes: reaction time 15 seconds or more, 55° C.
Method: as §1
The substances under test were administered by a stomach probe to preselected mice. The controls and the treated animals were placed on the hot plate (55° C.) one at a time immediately after treatment. The reaction time to heat, was measured 30 and 60 minutes after treatment. Animals were considered protected when the reaction time was 15 seconds or more.

[3] = acute toxicity on the rat, oral LD50; assay type: in vivo; conditions: rat, in vivo, po
Method: as §1
(§2) The two LD 50 values were calculated by the probit method.

rat = test: acute toxicity on the rat, oral LD50; assay type: in vivo; conditions: oral LD50, probit method
Method: as §1, §2

arachidonic acid oedema = arachidonic acid oedema in the rat, oral administration; assay type: in vivo; conditions: for change of Increase of Original Volume (in parentheses), 60 min: vs controls
Method: (1) Arachidonic acid oedema in the rat (M. J. Di Martino, G. C. Campbell Jnr., C. E. Wolff and N. Hanna, Agents and Actions; 21, 303, 1987)
Compound Ib was administered by gastric probe one hour before subplantar injection of 0.1 ml of 0.5% arachidonic acid in carbonate buffer (pH 8-8.2).
The volume of the paws of the treated animals and of the control was measured with a plethysmometer immediately and 60 minutes after the irritating agent (peak time of oedema).

[4] = system: 6-day old air pouch irritated by carrageenan; test: irritation of 6-day old air pouch by carrageenan in the rat; assay type: in vivo; conditions: os
Method: (2) Irritation of 6-day old air pouch by carrageenan in the rat (A. D. Sedgwick, Y. M. Sin, A. R. Mackay, A. Al-Duaij and D. A. Willoughby; J. Pharm. Pharmacol.; 36, 171, 1984).
The formation of a dorsal pouch was induced in the rat by dorsal subcutaneous administration of 20 ml of air. 10 ml of air were then injected every day for three consecutive days in order to keep the cavity permeable. Six days after the first injection of air, the dorsal pouch in the animals was treated with 1 ml of 1% carrageenan in physiological solution.
Compound Ib was administered by gastric probe, 24 hours and 1 hour before administration of the irritating agent.
The animals, dividedinto groups of five, were killed 4 hours and 24 hours after the carrageenan. The volume of the exudate and the total number of leucocytes were measured.

pH of aqueous solution = assay type: physicochemical; conditions: 1% aqueous solution (Ib)
[5] = dose corresponding to 10 mg/kg meclofenamic acid (Ib 12.7 mg/kg; sodium meclofenamate 11.0 mg/kg)
[6] = dose corresponding to 10 mg/kg meclofenamic acid
[7] = dose corresponding to 20 mg/kg meclofenamic acid (Ib 25,4 mg/kg; sodium meclofenamate 22,0 mg/kg), **P < 0.01 vs controls
[8] = dose corresponding to 20 mg/kg meclofenamic acid
[9] = Ib 12.7 mg/kg, sodium meclofenamate 11.0 mg/kg
[10] = Ib 25.4 mg/kg, sodium meclofenamate 22.0 mg/kg
[11] = dose corresponding to 10 mg/kg meclofenamic acid (Ib 12.7 mg/kg; sodium meclofenamate 11.0 mg/kg), **P < 0.01 vs controls
[12] = dose corresponding to 20 mg/kg meclofenamic acid (Ib 25.4 mg/kg; sodium meclofenamate 22.0 mg/kg), **P < 0.01 vs controls
[13] = Ib 12.7 mg/kg, sodium meclofenamate 11 mg/kg
[14] = Ib 25.4 mg/kg, sodium meclofenamate 22 mg/kg
[15] = Ib 31.75 mg/kg × 2 (**P < 0.01), sodium meclofenamate 27.5 mg/kg × 2 (*P < 0.05 vs controls), 24 h
[16] = Ib 31.75 mg/kg × 2, sodium meclofenamate 27.5 mg/kg × 2, 4 h, vs controls
[17] = Ib 31.75 mg/kg × 2, sodium meclofenamate 27.5 mg/kg × 2, 24 h, vs controls

SMILES: Cc1ccc(Cl)c(Nc2ccccc2C(=O)O)c1Cl [Sodium meclofenamate, sodium meclofenamate, reference compound]
- Increase of original volume (m ± s.e.), 1 h (carrageenin oedema; [5]): 0.41 ± 0.05 mL
- Increase of original volume (m ± s.e.), 2 h (carrageenin oedema; [5]): 0.87 ± 0.10 mL
- Increase of original volume (m ± s.e.), 3 h (carrageenin oedema; [5]): 1.42 ± 0.10 mL
- Increase of original volume (m ± s.e.), 4 h (carrageenin oedema; [5]): 1.12 ± 0.07 mL
- Increase of original volume (m ± s.e.), 5 h (carrageenin oedema; [5]): 1.39 ± 0.08 mL
- % change of increase of original volume, 1 h (carrageenin oedema; [6]): -13%
- % change of increase of original volume, 2 h (carrageenin oedema; [6]): -8%
- % change of increase of original volume, 3 h (carrageenin oedema; [6]): -7%
- % change of increase of original volume, 4 h (carrageenin oedema; [6]): -6%
- % change of increase of original volume, 5 h (carrageenin oedema; [6]): -10%
- Increase of original volume (m ± s.e.), 1 h (carrageenin oedema; dose corresponding to 20 mg/kg meclofenamic acid (Ib 25,4 mg/kg; sodium meclofenamate 22,0 mg/kg)): 0.36 ± 0.05 mL
- Increase of original volume (m ± s.e.), 2 h (carrageenin oedema; dose corresponding to 20 mg/kg meclofenamic acid (Ib 25,4 mg/kg; sodium meclofenamate 22,0 mg/kg), *P < 0.05): 0.65 ± 0.05 mL
- Increase of original volume (m ± s.e.), 3 h (carrageenin oedema; [7]): 0.77 ± 0.07 mL
- Increase of original volume (m ± s.e.), 4 h (carrageenin oedema; [7]): 1.07 ± 0.09 mL
- Increase of original volume (m ± s.e.), 5 h (carrageenin oedema; [7]): 1.24 ± 0.07 mL
- % change of increase of original volume, 1 h (carrageenin oedema; [8]): -20%
- % change of increase of original volume, 2 h (carrageenin oedema; [8]): -32%
- % change of increase of original volume, 3 h (carrageenin oedema; [8]): -43%
- % change of increase of original volume, 4 h (carrageenin oedema; [8]): -33%
- % change of increase of original volume, 5 h (carrageenin oedema; [8]): -25%
- anti-inflammatory activity compared with reference (in words) (carrageenin oedema; vs sodium meclofenamate): behaved in similar manner
- minimal effective dose (carrageenin oedema; read-out: dose at which antagonism of the oedema is statistically significant): 68 µmol/kg
- % Protection, 0-10 minutes [1, 9]: 52%
- % Protection, 10-20 minutes [1, 9]: 20%
- % Protection, 20-30 minutes [1, 9]: 40%
- % Protection, total [1, 9]: 43%
- % Protection, 0-10 minutes [1, 10]: 60%
- % Protection, 10-20 minutes [1, 10]: 33%
- % Protection, 20-30 minutes [1, 10]: 46%
- % Protection, total [1, 10]: 53%
- Writhing (m ± s.e.) during 10-20 minutes [1, 5]: 16.5 ± 1.0
- Writhing (m ± s.e.) during 20-30 minutes [1, 5]: 8.6 ± 0.4
- Writhing (m ± s.e.) during 0-10 minutes [1, 11]: 12.0 ± 1.6
- Writhing (m ± s.e.), total minutes [1, 11]: 34.2 ± 1.5
- Writhing (m ± s.e.) during 10-20 minutes ([1]; dose corresponding to 20 mg/kg meclofenamic acid (Ib 25.4 mg/kg; sodium meclofenamate 22.0 mg/kg)): 13.7 ± 1.5
- Writhing (m ± s.e.) during 0-10 minutes [1, 12]: 10.0 ± 1.1
- Writhing (m ± s.e.) during 20-30 minutes [1, 12]: 7.7 ± 0.8
- Writhing (m ± s.e.), total minutes [1, 12]: 28.0 ± 2.9
- activity in the hot plate test (in words) ([2]; mouse): inactive
- Percentages of mice protected at 30 minutes [2, 13]: 0%
- Percentages of mice protected at 60 minutes [2, 13]: 0%
- Percentages of mice protected at 30 minutes [2, 14]: 0%
- Percentages of mice protected at 60 minutes [2, 14]: 0%
- LD50 at 480 h ([3]; male and female rats, 20 days of observation, probit method, read-out: DL50): 127 mg/kg
- LD50 at 480 h ([3]; mg/kg meclofenamic acid, read-out: LD50 as corresponding meclofenamic acid): 119 mg/kg
- Slope (rat): 7.402 ± 2.014
- change of Increase of Original Volume (in parentheses), 60 min (arachidonic acid oedema; [13]): -6
- change of Increase of Original Volume (in parentheses), 60 min (arachidonic acid oedema; Ib 38.1 mg/kg, sodium meclofenamate 33 mg/kg): -29
- Increase of Original Volume (m ± s.e.), 60 min (arachidonic acid oedema; dose corresponding to 10 mg/kg meclofenamic acid (Ib 12.7 mg/kg; sodium meclofenamate 11 mg/kg)): 0.58 ± 0.05
- Increase of Original Volume (m ± s.e.), 60 min (arachidonic acid oedema; dose corresponding to 30 mg/kg meclofenamic acid (Ib 38.1 mg/kg, **P < 0.01; sodium meclofenamate 33 mg/kg, *P < 0.05 vs controls)): 0.44 ± 0.06
- statistically significant dose as fraction of the LD50 (arachidonic acid oedema; rat, oedema reduced in statistically significant manner): 1/4
- Leucocytes (m ± s.e.), 24 h [4, 15]: 40.14 ± 11.99 × 10^6
- Volume of exudate (m ± s.e.), 24 h [4, 15]: 0.52 ± 0.12 mL
- Leucocytes (m ± s.e.), 4 h ([4]; Ib 31.75 mg/kg × 2 (*P < 0.05 vs controls), sodium meclofenamate 27.5 mg/kg × 2, 4 h): 4.36 ± 1.76 × 10^6
- change of leucocytes (in parentheses), 4 h [4, 16]: -2
- change of volume of exudate (in parentheses), 4 h [4, 16]: -6
- change of leucocytes (in parentheses), 24 h [4, 17]: -52
- change of volume of exudate (in parentheses), 24 h [4, 17]: -42
- Volume of exudate (m ± s.e.), 4 h ([4]; dose corresponding to 25 mg/kg meclofenamic acid × 2 (Ib 31.75; sodium meclofenamate 27.5 mg/kg), 4 h): 0.30 ± 0.05 mL
- pH of aqueous solution (in words) (pH of aqueous solution): markedly alkaline pH

Source: patent US4879311A, “Derivatives of benzoyloxyacetic acid, and preparation and formulations thereof for therapeutic use” (Inverni della Beffa S.p.A., priority 1987, dated 1989)
